Source: patent US7053041B1, “Methods and compositions useful for inhibition of αvβ5mediated angiogenesis” (The Scripps Research Institute, priority 1996, dated 2006)
[ ]: non-standard residue; d: D form.

Tests used:
[1] = system: VEGF-induced angiogenesis; experiment: chick CAM assay, VEGF-induced angiogenesis, intravenous inhibitors; type: in vivo; conditions: for inhibition of VEGF-induced CAM angiogenesis: VEGF 150 ng/ml, 75 μg antibody or peptide intravenously, 72 hours
Experimental: Ten day old chick embryos were obtained from McIntyre Poultry (Lakeside, Calif.) and incubated at 37C with 60% humidity. A small hole was made through the shell at the end of the egg directly over the air sac with the use of a small crafts drill (Dremel, Division of Emerson Electric Co., Racine, Wis.). A second hole was drilled on the broad side of the egg in a region devoid of embryonic blood vessels determined previously by candling the egg. […] A 1.0 centimeter (cm)×1.0 cm square window was cut through the shell over the dropped CAM with the use of a small model grinding wheel (Dremel). The small window allowed direct access to the underlying CAM.
Angiogenesis was induced by placing a 5 millimeter (mm)×5 mm Whatman filter disk (Whatman Filter paper No. 1) saturated with Hanks Balanced Salt Solution (HBSS, GIBCO, Grand Island, N.Y.) or HBSS containing preselected cytokines at a preselected concentration, i.e. one to test the effect on angiogenesis, on the CAM of a 10 day chick embryo in a region devoid of blood vessels and the windows were later sealed with tape. Angiogenesis was monitored by photomicroscopy after 72 hours. CAMs were snap frozen then 6 μm cryostat sections were fixed with acetone and stained by immunofluorescence as described in Example 2B and 2C with 10 μg/ml of selected anti-integrin antibodies, including those directed against αvβ5 as described in Example 1.
Angiogenesis was first induced on 10 day old chick embryos by application of growth factor-saturated filter disks. Specifically, in the first assays, angiogenesis was induced by exposure to either bFGF or VEGF, each at a concentration of 150 ng/ml.
For application of growth factors, during the candling procedures, prominent blood vessels were selected and marks were made on the egg shell to indicate their positions. The holes were drilled in the shell, the CAMs were dropped and growth factor-saturated filter papers were then separately placed on the CAMs as described above. The windows were sealed with sterile tape and the embryos were replaced in the incubator.
Twenty four hours later, a second small window was carefully cut on the lateral side of the egg shell directly over prominent blood vessels selected previously. The outer egg shell was carefully removed leaving the embryonic membranes intact. The shell membrane was made transparent with a small drop of mineral oil (Perkin-Elmer Corp, Norwalk, Conn.) which allowed the blood vessels to be visualized easily. Then, phosphate buffered saline (PBS), 75 μg of purified sterile anti-integrin antibodies or 75 μg of synthetic peptides (cyclic peptide RGDfV, SEQ ID NO 4 and control cyclic peptide RADfV, SEQ ID NO 5) in PBS were injected into blood vessels apparent on the growth factor-induced CAMs. The windows were sealed with tape and the embryos were allowed to incubate until 72 hours.
The filter discs and representative surrounding CAM tissues were photographed in a stereomicroscope (FIGS. 3A–3F and FIGS. 5A–5F) and the mean angiogenic index +/− the standard error was determined for 12 CAMs per condition (FIGS. 4A–4B and FIGS. 6A–6B). Angiogenesis was scored for each embryo in a double blind manner by analyzing the number and extent of branching of blood vessels within the area of each disc. The scores ranged from 1 (low) to 4 (high) and the angiogenesis index was determined by subtracting a background of 1 from all data.
In a further assay performed in the CAM model having VEGF-induced angiogenesis, 2 μg of peptides 85189 (SEQ ID NO 9) and the inert salt counterpart 121974 were separately intravenously injected as previously described. The effect of the peptides was assessed in comparison to that of control peptide 69601 (SEQ ID NO 5) and to untreated (labeled as NT) preparations.
The effect of the peptides of VEGF-induced angiogenesis is measured through a determination of the number of blood vessel branch points. […]

[2] = system: bFGF-induced angiogenesis; experiment: in vivo rabbit eye model assay, bFGF-induced corneal angiogenesis
Experimental: Hydron polymer pellets containing growth factor and monoclonal antibodies (mAbs) were prepared as described by D'Amato, et al., Proc. Natl. Acad. Sci., 91:4082–4085 (1994). […] In addition, hydron pellets were prepared which contained either 40 μg of the mAb P1F6 (anti-αvβ5) or the control antibody, LM609 (anti-αvβ3), in PBS.
All of the mAbs tested were purified from ascites fluid using Protein-A Sepharose CL-4B affinity column chromatography according to well-known methods. The eluted immunoglobulin was then dialyzed against PBS and treated with Detoxi-gel (Pierce Chemicals, Rockford, Ill.) to remove endotoxin. […] Monoclonal antibodies were therefore tested for the presence of endotoxin with the Chromogenic Limulus Amebocyte Lysate Assay (BioWhittaker, Walkersville, Md.) and only those mAbs without detectable endotoxin were used in the rabbit eye model assay.
Approximately 12 μl of casting material was placed into each peg and polymerized overnight in a sterile hood. Pellets were then sterilized by ultraviolet irradiation.
A series of eight animals were used for paired eye experiments where each animal received a Hydron implant containing a preselected cytokine with a preselected antibody or control immunoglobulin. Specifically, for each rabbit, one cornea was surgically implanted with a Hydron pellet containing either bFGF or VEGF in conjunction with mAb P1F6 and the other cornea was treated with either bFGF or VEGF in conjunction with MAb LM609. Individual pellets were implanted into surgically created “pockets” formed in the mid-stroma of the cornea of rabbits. The surgical procedure was done under sterile technique using a Wild model M691 operating microscope equipped with a beamsplitter to which was mounted a camera for photographically recording individual corneas. A 3 mm by 5 mm “pocket” was created in the corneal stroma by making a 3 mm incision to half the corneal thickness with a 69 Beaver blade. The stroma was dissected peripherally using an iris spatula and the pellet was implanted with its peripheral margin 2 mm from the limbus. […]
The effects of specific mAb integrin immunoreactivity on the above cytokine-induced angiogenesis is also quantified as shown in FIGS. 2A and 2B. […] Photographs were recorded on Kodak Ektachrome 64T slide film and images were converted for computer-assisted quantitation using Biorad's Molecular Analyst 1.1 software after acquisition through a Model GS670 imaging densitometer. […]
Each experiment consisted of eight rabbits in which one eye received a pellet comprising 100 nanograms (ng) bFGF and the other eye received a pellet comprising 1 microgram (ug) VEGF. […] After 7 days, the cornea were evaluated as described above.

Row | Molecule | inhibition of VEGF-induced CAM angiogenesis [1] | corneal blood vessel growth at 7 days, bFGF-stimulated eyes ([2]; peptide s.q. 50 ug per kg initial, 20 ug/kg daily, 100 ng bFGF pellet) | inhibition of VEGF-induced CAM angiogenesis (number of blood vessel branch points) ([1]; 2 μg peptide intravenously) | amount of corneal blood vessel growth compared to controls ([2]; peptide s.q. 50 ug per kg initial, 20 ug/kg daily, 7 days, 100 ng bFGF pellet) | effect on CAM angiogenesis induced by VEGF (angiogenesis index) ([1]; VEGF 1.0 μg/ml, antibodies 75 μg per embryo, calphostin C 100 nM) | reduction of bFGF-induced angiogenesis (mean neovascular area) ([2]; 40 μg mAb in pellet, compared to paired eye treated with P1F6, p<0.005) [%] | inhibition of bFGF-induced corneal angiogenesis ([2]; Hydron pellet with 750 ng bFGF and 40 μg mAb, postoperative day 10)
1 | cyclo(Arg-Ala-Asp-D-Phe-Val) (cyclo(RAD[dF]V); SMILES CC(C)[C@@H]1NC(=O)[C@@H](Cc2ccccc2)NC(=O)[C@H](CC(=O)O)NC(=O)[C@H](C)NC(=O)[C@H](CCCNC(=N)N)NC1=O) [peptide 69601, reference compound] | did not effect angiogenesis | substantial corneal blood vessel growth |  |  |  |  | 
2 | cyclo(Arg-Gly-Asp-D-Phe-NMeVal) [peptide 85189] |  |  | completely inhibited angiogenesis | less than 50% |  |  | 
3 | LM609: mouse monoclonal antibody, anti-αvβ3 (antibody, V domains shown) VH: EVQLEESGGGLVKPGGSLKLSCAASGFAFSSYDMSWVRQIPEKRLEWVAKVSSGGGSTYYLDTVQGRFTISRDNAKNTLYLQMSSLNSEDTAMYYCARHNYGSFAYWGQGTLVTVSA VL: ELVMTQTPATLSVTPGDSVSLSCRASQSISNHLHWYQQKSHESPRLLIKYASQSISGIPSRFSGSGSGTDFTLSINSVETEDFGMYFCQQSNSWPHTFGGGTKLEIKRA | little effect on angiogenesis |  |  |  | failed to do so | 86 | inhibited
